We go through eight molecules from patent US20250263415A1, “TERTIARY AMIDE DERIVATIVES SUBSTITUTED WITH 4-MEMBERED RING STRUCTURE” (Sumitomo Pharma Co., Ltd., priority 2024, published 2025).

Series [1] has as its system G-401 xenograft. Kind of series: Drug efficacy evaluation by intravenous administration using G-401 xenograft mice model. It is filed as in vivo. To be noted: G-401 xenograft model. Here is the method: G-401 cells (ATCC) were intradermally transplanted into 4-7-week-old BALB/cAnNCrj-nu/nu mice (CAnN.Cg-Foxnl/CrlCrlj, Jackson Laboratory Japan) at 5×10^5 cells/mouse. After confirming the engraftment of G-401 cells 10-40 days after transplantation, the test compound suspended in a solvent such as 10 mmol/L glycine buffer solution (pH 2.0) was administered via the tail vein at least once a week at a dose of 0.015-20 mg/kg. The tumor volume was measured over time from the start of administration, and the effect of tumor volume reduction by administration of the test compound was evaluated. The tumor volume can be calculated from the following equation using the minor axis and major axis of the tumor measured with an electronic caliper (Mitutoyo).
A control administration group administered with only a solvent such as 10 mmol/L glycine buffer solution (pH 2.0) and a test compound administration group were compared, and the antitumor effect was evaluated by calculating T/C from the following equation.

Series [2] concerns the target hSERT (Homo sapiens (Human), UniProt P31645). Put plainly: Serotonin receptor inhibitory activity evaluation (binding assay, HEK293/hSERT membranes). Conditions: for Inhibitory effect on serotonin receptors (in words): off-target. Here is the method: The binding evaluation assay was outsourced to Eurofins. Specifically, HEK293/hSERT cells were homogenized in a buffer consisting of 100 mmol/L NaCl, 1 μmol/L Leupeptin, 10 μmol/L PMSF, and 50 mmol/L Tris-HCl (pH7.4). The membrane pellet obtained by centrifugation was resuspended in an incubation buffer consisting of 50 mmol/L Tris-HCl (pH 7.4), 120 mmol/L NaCl, and 5 mmol/L KCl to prepare a membrane preparation. The test compound (1-10 μmol/L DMSO solution), the membrane preparation, and 0.4 nmol/L [^3H]Paroxetin were mixed and incubated at 25° C. for 60 minutes. The cell membrane-[^3H]Paroxetin complex was bound to a GF/B filter mat by vacuum filtration and washed with 50 mmol/L Tris-HCl (pH 7.4). The effect on the receptor was assessed by measuring radioactivity using a scintillation counter.

In series [3] the target is hDAT (Homo sapiens (Human), UniProt Q01959). Put plainly: Dopamine receptor inhibitory activity evaluation (binding assay, CHO-S/hDAT membranes). Conditions: for Inhibitory effect on dopamine receptors (in words): off-target. The protocol:
The binding evaluation assay was outsourced to Eurofins. Specifically, CHO—S/hDAT cells were homogenized in an incubation buffer consisting of 50 mmol/L Tris-HCl, pH 7.4, 100 mmol/L NaCl, 1 μmol/L Leupeptin, and 10 μmol/L PMSF. The membrane pellet obtained by centrifugation was resuspended in the incubation buffer to prepare a membrane preparation. The test compound (1-10 μmol/L DMSO solution), the membrane preparation, and 0.15 nmol/L […] were mixed and incubated at 4° C. for 180 minutes. The cell membrane-[^125I]RTI-55 complex was bound to a GF/B filter mat by vacuum filtration and washed with 50 mmol/L Tris-HCl, pH 7.4. The effect on the receptor was assessed by measuring radioactivity using a scintillation counter.

Series [4] in a line: Solubility test. It is filed as physicochemical. Conditions: for solubility: aqueous buffer, thermodynamic from solid. Here is the method: The solubility was measured for Examples 7, 10, 20, 23, 24, and 30 to 34, Comparative Example 1, and Comparative Example 2. The test compound was added to 10 mmol/L glycine buffer (pH 2.0) and 10 mmol/L citrate buffer (pH 3.0), and the mixture was stored in a thermostatic chamber at 5° C. After standing overnight, the mixture was filtered through a membrane filter, and the concentration of the filtrate was measured by HPLC.
The HPLC measurement conditions are as follows.
HPLC conditions • Column: Acquity UPLC BEH C18, 1.7 μm, 50×2.1 mm • Column temperature: 40° C. • Mobile phase: A: 0.1% trifluoroacetic acid-containing water • B: acetonitrile • A/B (min): 95/5 (0)→0/100 (3.5)→0/100 (4)→95/5 (4.01)→95/5 (5) • Flow rate: 0.8 mL/min • Detection: UV visible detector, measurement wavelength 254 nm • Injection volume: 5 μL or • Column: Acquity UPLC BEH C18, 1.7 μm, 50×2.1 mm • Column temperature: 40° C. • Mobile phase: A: 0.1% trifluoroacetic acid-containing water • B: acetonitrile • A/B (min): • 80/20 (0)→40/60 (3.0)→0/100 (3.5)→0/100 (4)→80/20 (4.01)→80/20 (5) • Flow rate: 0.8 mL/min • Detection: UV visible detector, measurement wavelength 254 nm • Injection volume: 2 μL or • Column: Acquity UPLC BEH C18, 1.7 μm, 50×2.1 mm • Column temperature: 40° C. • Mobile phase: A: 0.1% trifluoroacetic acid-containing water • B: acetonitrile • A/B (min): • 80/20 (0)→40/60 (3.0)→0/100 (3.5)→0/100 (4)→100/0 (4.01)→100/0 (5) • Flow rate: 0.8 mL/min • Detection: UV visible detector, measurement wavelength 254 nm • Injection volume: 3 μL

Series [5] deals with recombinant p300 (Homo sapiens (Human), UniProt Q09472). Put plainly: HAT activity inhibition experiment (SensoLyte HAT(p300) Assay Kit). In kind it is biochemical. To be noted: recombinant p300, acetyl CoA, histone H3 peptide. Here is the method:
The HAT activity inhibitory ability of HAT inhibitors was evaluated using SensoLyte HAT(p300) Assay Kit (ANASPEC, AS-72172). Specifically, 7.5 μL of the compound of Examples […] diluted with assay buffer was added to 7.5 μL of recombinant p300 solution diluted 10 times with assay buffer, and the mixture was incubated at room temperature for 10 minutes. 7.5 μL of acetyl CoA solution diluted 10 times with assay buffer and 15 μL of histone H3 peptide diluted 10 times with assay buffer were added thereto, and the mixture was incubated at 37° C. for 30 minutes. 37.5 μL of Stop Solution was added to stop the reaction. 75 μL of p300 Developer solution diluted 50 times with assay buffer was added, and the mixture was incubated at room temperature for 30 minutes under light-shielded conditions. The fluorescence at 513 nm when irradiated with 389 nm excitation light was measured using a multiplate reader.

A short description of series [6]: Pharmacokinetic study in mice. It is filed as in vivo. To be noted: for BA: oral 10 mg/kg vs intravenous 1 mg/kg. The protocol: The test compound was administered to 7-week-old female BALE/c (BALB/cAnN CrlCrlj) mice intravenously (dosage: 1 mg/kg) in a 50% PEG solution (0.01 mol/L HCl) or orally (dosage: 10 mg/kg) in a 0.5% methylcellulose aqueous solution, and blood was collected at the following times: • Intravenous administration: 5 min, 15 min, 30 min, 1 hr, 2 hr, 4 hr, 6 hr, and 24 hr after administration • Oral administration: 15 min, 30 min, 1 hr, 2 hr, 4 hr, 6 hr, and 24 hr after administration
The collected blood was centrifuged at 3000 rpm×10 min using a refrigerated centrifuge set at 4° C., and the obtained plasma was measured by LC-MS. A calibration curve was prepared from the value (peak ratio) obtained by dividing the peak area of the test substance by the peak area of the internal standard substance in MS and the concentration of the plasma calibration curve sample. The concentration in the sample was calculated from the peak ratio and the calibration curve of each sample.

The test system of series [7] is G-401 cells. Kind of series: Cell proliferation inhibition experiment using G-401 cells. It is filed as cell-based. The protocol: G-401 cells (derived from malignant rhabdoid tumor) were obtained from the American Type Culture Collection (ATCC). G-401 cells were cultured in McCoy's 5A medium containing 10% fetal bovine serum and 1% penicillin/streptomycin under conditions of 37° C. and 5% CO2.
500 cells per well were seeded in a 384-well plate. One day after seeding, Examples 1 to 35 were added so that the final concentration of DMSO was 0.1%, and the cells were cultured for 3 days. After the culture was completed, the cell viability was measured using CellTiter-Glo Luminescent Cell Viability Assay (Promega, G7570).

Converted amounts (≈) assume the structure as drawn. Where two headings read alike, the source gives them in different places.

Sequence of hDAT (Q01959 whole entry): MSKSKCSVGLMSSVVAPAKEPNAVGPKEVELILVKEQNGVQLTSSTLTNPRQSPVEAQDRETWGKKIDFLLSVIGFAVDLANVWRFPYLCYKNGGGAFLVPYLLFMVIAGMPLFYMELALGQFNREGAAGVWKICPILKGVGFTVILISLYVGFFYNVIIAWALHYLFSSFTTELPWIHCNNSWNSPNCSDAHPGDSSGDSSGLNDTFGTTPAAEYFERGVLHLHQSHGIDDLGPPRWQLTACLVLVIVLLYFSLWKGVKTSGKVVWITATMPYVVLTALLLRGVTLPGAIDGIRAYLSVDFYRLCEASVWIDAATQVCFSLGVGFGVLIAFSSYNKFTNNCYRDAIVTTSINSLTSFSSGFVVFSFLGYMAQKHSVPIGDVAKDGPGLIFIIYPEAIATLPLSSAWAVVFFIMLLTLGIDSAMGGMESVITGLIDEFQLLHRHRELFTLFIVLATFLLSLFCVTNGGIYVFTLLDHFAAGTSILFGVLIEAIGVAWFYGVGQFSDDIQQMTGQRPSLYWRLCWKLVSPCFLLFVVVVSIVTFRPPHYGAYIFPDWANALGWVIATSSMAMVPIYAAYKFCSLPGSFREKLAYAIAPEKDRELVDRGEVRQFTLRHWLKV
Sequence of hSERT (P31645 whole entry): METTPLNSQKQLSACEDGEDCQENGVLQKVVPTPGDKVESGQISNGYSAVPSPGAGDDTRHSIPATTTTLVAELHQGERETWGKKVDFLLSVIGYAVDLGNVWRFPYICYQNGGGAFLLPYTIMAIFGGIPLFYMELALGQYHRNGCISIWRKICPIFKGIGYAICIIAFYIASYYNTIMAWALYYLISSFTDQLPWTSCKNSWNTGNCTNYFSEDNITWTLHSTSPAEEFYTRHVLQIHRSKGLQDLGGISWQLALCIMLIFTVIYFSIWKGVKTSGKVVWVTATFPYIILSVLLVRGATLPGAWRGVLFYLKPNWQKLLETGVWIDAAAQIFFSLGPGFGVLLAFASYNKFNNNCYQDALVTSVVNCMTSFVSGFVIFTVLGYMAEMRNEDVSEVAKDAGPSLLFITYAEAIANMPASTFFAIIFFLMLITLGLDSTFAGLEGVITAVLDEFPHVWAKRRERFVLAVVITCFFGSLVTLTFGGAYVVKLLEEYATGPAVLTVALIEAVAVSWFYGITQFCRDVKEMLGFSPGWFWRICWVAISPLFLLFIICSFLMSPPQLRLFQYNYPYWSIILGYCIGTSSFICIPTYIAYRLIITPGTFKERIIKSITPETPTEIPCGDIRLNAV
Sequence of recombinant p300 (Q09472 whole entry): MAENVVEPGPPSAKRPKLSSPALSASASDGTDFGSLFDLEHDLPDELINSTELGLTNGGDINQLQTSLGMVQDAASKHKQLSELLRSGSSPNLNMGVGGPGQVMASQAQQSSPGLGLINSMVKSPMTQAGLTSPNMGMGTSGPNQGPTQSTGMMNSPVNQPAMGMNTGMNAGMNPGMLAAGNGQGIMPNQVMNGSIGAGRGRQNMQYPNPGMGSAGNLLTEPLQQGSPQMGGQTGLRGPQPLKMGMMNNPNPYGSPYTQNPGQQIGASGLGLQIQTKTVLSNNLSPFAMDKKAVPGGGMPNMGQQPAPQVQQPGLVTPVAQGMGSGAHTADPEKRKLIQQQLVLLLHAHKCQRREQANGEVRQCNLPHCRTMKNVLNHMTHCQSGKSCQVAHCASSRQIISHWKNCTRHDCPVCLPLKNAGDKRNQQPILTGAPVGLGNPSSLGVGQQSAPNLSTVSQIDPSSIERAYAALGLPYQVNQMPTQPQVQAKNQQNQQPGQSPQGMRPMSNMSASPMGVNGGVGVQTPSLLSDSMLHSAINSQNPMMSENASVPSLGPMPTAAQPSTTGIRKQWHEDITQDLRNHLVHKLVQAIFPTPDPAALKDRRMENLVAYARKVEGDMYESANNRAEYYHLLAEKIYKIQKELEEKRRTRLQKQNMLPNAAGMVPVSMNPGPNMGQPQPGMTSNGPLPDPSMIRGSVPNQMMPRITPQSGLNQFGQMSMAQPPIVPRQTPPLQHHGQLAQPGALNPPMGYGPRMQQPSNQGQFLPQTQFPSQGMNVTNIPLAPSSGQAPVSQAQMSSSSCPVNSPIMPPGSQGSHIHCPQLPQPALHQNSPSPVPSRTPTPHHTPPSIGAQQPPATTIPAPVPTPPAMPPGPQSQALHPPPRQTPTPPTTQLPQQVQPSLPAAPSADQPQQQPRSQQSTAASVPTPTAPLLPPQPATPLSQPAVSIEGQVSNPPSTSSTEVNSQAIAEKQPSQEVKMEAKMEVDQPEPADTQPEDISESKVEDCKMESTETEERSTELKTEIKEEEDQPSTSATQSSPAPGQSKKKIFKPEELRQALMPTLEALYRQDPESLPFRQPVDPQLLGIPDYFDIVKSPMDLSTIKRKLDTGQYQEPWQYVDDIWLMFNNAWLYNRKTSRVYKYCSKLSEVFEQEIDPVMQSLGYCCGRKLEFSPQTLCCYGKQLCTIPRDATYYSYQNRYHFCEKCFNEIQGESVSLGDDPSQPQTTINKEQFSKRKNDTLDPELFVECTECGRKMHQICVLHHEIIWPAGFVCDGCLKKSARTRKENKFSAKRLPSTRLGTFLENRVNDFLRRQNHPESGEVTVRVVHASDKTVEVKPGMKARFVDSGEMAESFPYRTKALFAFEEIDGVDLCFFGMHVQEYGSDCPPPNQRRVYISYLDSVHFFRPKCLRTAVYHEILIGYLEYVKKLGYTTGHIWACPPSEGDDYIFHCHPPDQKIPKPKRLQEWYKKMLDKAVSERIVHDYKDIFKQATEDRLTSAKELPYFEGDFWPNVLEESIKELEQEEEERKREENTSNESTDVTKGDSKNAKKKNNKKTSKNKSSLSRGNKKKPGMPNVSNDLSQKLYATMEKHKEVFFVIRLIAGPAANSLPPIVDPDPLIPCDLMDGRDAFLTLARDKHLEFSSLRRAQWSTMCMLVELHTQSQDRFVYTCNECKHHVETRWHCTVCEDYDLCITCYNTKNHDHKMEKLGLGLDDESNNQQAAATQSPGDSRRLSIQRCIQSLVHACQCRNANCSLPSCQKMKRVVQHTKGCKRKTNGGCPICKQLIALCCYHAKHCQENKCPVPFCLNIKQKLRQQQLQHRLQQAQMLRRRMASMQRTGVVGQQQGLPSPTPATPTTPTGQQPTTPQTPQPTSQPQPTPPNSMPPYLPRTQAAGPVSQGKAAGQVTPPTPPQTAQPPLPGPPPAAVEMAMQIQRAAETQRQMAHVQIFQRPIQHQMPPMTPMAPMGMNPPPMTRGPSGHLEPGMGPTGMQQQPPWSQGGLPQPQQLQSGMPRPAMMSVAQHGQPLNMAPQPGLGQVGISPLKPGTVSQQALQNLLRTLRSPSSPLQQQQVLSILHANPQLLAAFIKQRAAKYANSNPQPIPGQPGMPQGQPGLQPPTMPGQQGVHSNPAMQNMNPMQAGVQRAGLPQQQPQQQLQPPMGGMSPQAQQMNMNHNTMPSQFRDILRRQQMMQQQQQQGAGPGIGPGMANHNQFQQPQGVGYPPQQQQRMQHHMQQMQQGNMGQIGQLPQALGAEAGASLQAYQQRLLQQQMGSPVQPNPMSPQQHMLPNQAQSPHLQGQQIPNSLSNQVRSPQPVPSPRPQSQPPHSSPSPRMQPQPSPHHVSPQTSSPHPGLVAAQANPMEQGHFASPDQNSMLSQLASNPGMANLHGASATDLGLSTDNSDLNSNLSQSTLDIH

As to `CNC(=O)Cn1cc(-c2ccc3c(c2)[C@H](F)C[C@]32NC(=O)N(CC(=O)N(Cc3ccc(F)cc3)[C@@H](C)C(F)(F)F)C2=O)cn1` [Comparative Example 1, reference compound], the “Antitumor effect, intravenous administration (in words)” value in series [1] is “no antitumor effect”.

Turning to `CNC(=O)Nc1ccc2c(c1)CC[C@@]21OC(=O)N(CC(=O)N2[C@@H](C)CC[C@H]2c2cc(F)c(F)c(F)c2)C1=O` [Comparative Example 2, reference compound], the inhibition at 10 µM in series [2] (10 μM, HEK293/hSERT membrane preparation) turned out to be 76%; in series [3] (10 μM, CHO-S/hDAT membrane preparation) it was 88%. Further, in series [2], the “Inhibitory effect on serotonin receptors (in words)” value is on record as “strong inhibitory effect”. The “Inhibitory effect on dopamine receptors (in words)” value in series [3] is recorded as “strong inhibitory effect”. Further, the “Solubility in pH 3.0 buffer” value in series [4] (10 mmol/L citrate buffer (pH 3.0), 5° C., overnight) worked out at 0.005 mg/mL. Besides, the “Solubility in pH 2.0 buffer” value in series [4] (10 mmol/L glycine buffer (pH 2.0), 5° C., overnight) turned out to be 0.004 mg/mL. In addition, the solubility in series [4] (10 mmol/L citrate buffer (pH 3.0), 5° C., overnight, read-out: Solubility in pH 3.0 buffer) was 5 µg/mL (≈ 9.43 µM); in series [4] (10 mmol/L glycine buffer (pH 2.0), 5° C., overnight, read-out: Solubility in pH 2.0 buffer), 4 µg/mL (≈ 7.54 µM).

Regarding `O=C1N[C@]2(CCc3cc(-c4cnn(C5CN(C6COC6)C5)c4)ccc32)C(=O)N1CC(=O)N(Cc1ccc(F)cn1)C1(C(F)(F)F)CC(F)(F)C1` [Example 8, N-[3,3-difluoro-1-(trifluoromethyl)cyclobutyl]-N-[(5-fluoropyridin-2-yl)methyl]-2-[(1′S)-5′-{-[1-(oxetan-3-yl)azetidin-3-yl]-1H-pyrazol-4-yl}-2,5-dioxo-2′,3′-dihydrospiro[imidazolidine-4,1′-inden]-1-yl]acetamide], the half-inhibitory concentration (IC50) in series [5] was 17.2 nM.

As to `O=C1N[C@]2(C[C@@H](F)c3cc(-c4cnn(C5CN(C6COC6)C5)c4)ccc32)C(=O)N1CC(=O)N(Cc1ccc(F)cn1)C1(C(F)(F)F)CC(F)(F)C1` [Example 9, N-[3,3-difluoro-1-(trifluoromethyl)cyclobutyl]-2-[(1′S,3′R)-3′-fluoro-5′-{1-[1-(oxetan-3-yl)azetidin-3-yl]-1H-pyrazol-4-yl}-2,5-dioxo-2′,3′-dihydrospiro[imidazolidine-4,1′-inden]-1-yl]-N-[(5-fluoropyridin-2-yl)methyl]acetamide], in series [5], the IC50 was found to be 0.6 nM.

On to `CN1CC(N(Cc2ccc(F)cc2)C(=O)CN2C(=O)N[C@]3(CCc4cc(-c5cnn(C)c5)ccc43)C2=O)(C(F)(F)F)C1` [Example 12, N-[(4-fluorophenyl)methyl]-2-[(1′S)-5′-(1-methyl-1H-pyrazol-4-yl)-2,5-dioxo-2′,3′-dihydrospiro[imidazolidine-4,1′-inden]-1-yl]-N-[1-methyl-3-(trifluoromethyl)azetidin-3-yl]acetamide], for which the BA in series [6] is on record as 30.0%.

Regarding `CN1CC(N(Cc2ccc(F)cc2)C(=O)CN2C(=O)N[C@]3(C[C@@H](F)c4cc(-c5cnn(C6CCOCC6)c5)ccc43)C2=O)(C(F)(F)F)C1` [Example 19, 2-{(1′S,3′R)-3′-fluoro-5′-[1-(oxan-4-yl)-1H-pyrazol-4-yl]-2,5-dioxo-2′,3′-dihydrospiro[imidazolidine-4,1′-inden]-1-yl}-N-[(4-fluorophenyl)methyl]-N-[1-methyl-3-(trifluoromethyl)azetidin-3-yl]acetamide], in series [7], the “Cell proliferation inhibitory effect on G-401 cells (in words)” value is given as “strong cell proliferation inhibitory effect”.

For the molecule `CN1CC(N(Cc2ccc(F)cn2)C(=O)CN2C(=O)N[C@]3(C[C@@H](F)c4cc(-c5cnn(C6COC6)c5)ccc43)C2=O)(C(F)(F)F)C1` [Example 24, 2-{(1′S,3′R)-3′-fluoro-5′-[1-(oxetan-3-yl)-1H-pyrazol-4-yl]-2,5-dioxo-2′,3′-dihydrospiro[imidazolidine-4,1′-inden]-1-yl}-N-[(5-fluoropyridin-2-yl)methyl]-N-[1-methyl-3-(trifluoromethyl)azetidin-3-yl]acetamide], the “Antitumor effect, intravenous administration (in words)” value in series [1] is recorded as “strong antitumor effects”. Further, in series [6], the “Pharmacokinetics (in words)” value is recorded as “excellent pharmacokinetics” and the BA came to 47.0%. Moreover, the “Inhibitory effect on serotonin receptors (in words)” value in series [2] is reported as “did not show strong inhibitory activity”. In addition, the “Inhibitory effect on dopamine receptors (in words)” value in series [3] is “did not show strong inhibitory activity”. In series [4] (pH 2.0 and pH 3.0 buffers), the “Solubility (in words)” value is listed as “high solubility”.

Take `CN1CC(N(Cc2ccc(F)cn2)C(=O)CN2C(=O)N[C@]3(C[C@@H](F)c4cc(-c5cnn(CC6COC6)c5)ccc43)C2=O)(C(F)(F)F)C1` [Example 25, 2-[(1′S,3′R)-3′-fluoro-5′-{1-[(oxetan-3-yl)methyl]-1H-pyrazol-4-yl}-2,5-dioxo-2′,3′-dihydrospiro[imidazolidine-4,1′-inden]-1-yl]-N-[(5-fluoropyridin-2-yl)methyl]-N-[1-methyl-3-(trifluoromethyl)azetidin-3-yl]acetamide]: the “Inhibitory effect on serotonin receptors (in words)” value in series [2] is “did not show strong inhibitory activity”. Moreover, the “Inhibitory effect on dopamine receptors (in words)” value in series [3] is given as “did not show strong inhibitory activity”.
